The source of these data is patent publication US7989482B2, “Indoline anti-cancer agents” (Joyant Pharmaceuticals, Inc., priority 2008, dated 2011).

Where two headings read alike, the source gives them in different places.

What is called IC50 is the concentration at which inhibition is half-maximal.

The subject of assay [1] is A2058 cells. Put plainly: Cell viability assay (CELL-TITER-GLO) in A2058 cells. Type of assay: cell-based. The settings on record: Homo sapiens, A2058 cells, 48 hour treatment, cell viability, read-out: IC50 (μM) A2058. The procedure: (§1) Cell viability assays were run using standard protocols known to those of skill in art. Cells were plated in 96 well plates at the density of 3,000-10,000 cells per well. Twenty four hours later, cells were treated with increasing concentration of test compounds (1 nM to 1 μM). After another 48 hour, cell survival was measured using CELL-TITER-GLO® reagent (Promega) following the protocol provided by the manufacture. The IC50 value was determined as the concentration of test compound that kills 50% of the cell population.
(§2) Cell viability data generated according to the protocol described in Example 97 was generated for representative compounds in A2058 and U937 cells.

Assay [2] deals with U937 cells. Description: Cell viability assay (CELL-TITER-GLO) in U937 cells. Type of assay: cell-based. The settings on record: Homo sapiens, U937 cells, 48 hour treatment, cell viability, read-out: IC50 (μM) U937. As to the method:
as §1, §2

With `CC(C)[C@H](O)C(=O)N[C@H]1Cc2ccc3c(c2)C2(C4=C(C(=O)NC5CCCCC5)N=C(O4)[C@H](C(C)C)NC1=O)c1ccccc1N[C@H]2O3` (some centres unmarked) [Example 22], the IC50 in assay [1] (A2058, 48 h) is > 1 µM; in assay [2] (U-937, 48 h), > 1 µM.

Turning to `CNC(=O)c1nc2oc1C13c4ccccc4N[C@H]1Oc1ccc(cc13)C[C@H](NC(=O)[C@@H](O)C(C)C)C(=O)N[C@H]2C(C)C` (some centres unmarked) [Example 23], the IC50 in assay [1] (A2058, 48 h) is > 1 µM; in assay [2] (U-937, 48 h), > 1 µM.

In the case of `CC(C)[C@H](O)C(=O)N[C@H]1Cc2ccc3c(c2)C2(C4=C(C(=O)NC(C)(C)C)N=C(O4)[C@H](C(C)C)NC1=O)c1ccccc1N[C@H]2O3` (some centres unmarked) [Example 24], the IC50 was > 1 µM in assay [1] (A2058, 48 h) and > 1 µM in assay [2] (U-937, 48 h).

Take `CCN(CC)C(=O)c1nc2oc1C13c4ccccc4N[C@H]1Oc1ccc(cc13)C[C@H](NC(=O)[C@@H](O)C(C)C)C(=O)N[C@H]2C(C)C` (some centres unmarked) [Example 25]: the IC50 in assay [1] (A2058, 48 h) is > 1 µM; in assay [2] (U-937, 48 h), > 1 µM.

Regarding `CC(C)[C@H](O)C(=O)N[C@H]1Cc2ccc3c(c2)C2(C4=C(C(=O)N5CCc6ccccc65)N=C(O4)[C@H](C(C)C)NC1=O)c1ccccc1N[C@H]2O3` (some centres unmarked) [Example 26], the IC50 was > 1 µM in assay [1] (A2058, 48 h) and > 1 µM in assay [2] (U-937, 48 h).

For `CC(C)[C@H](O)C(=O)N[C@H]1Cc2ccc3c(c2)C2(C4=C(C(=O)N5CCN=C5c5ccccc5)N=C(O4)[C@H](C(C)C)NC1=O)c1ccccc1N[C@H]2O3` (some centres unmarked) [Example 27], the IC50 in assay [1] (A2058, 48 h) is > 1 µM; in assay [2] (U-937, 48 h), > 1 µM.

For `CC(C)[C@H](O)C(=O)N[C@H]1Cc2ccc3c(c2)C2(C4=C(C(=O)NC5CCc6ccccc65)N=C(O4)[C@H](C(C)C)NC1=O)c1ccccc1N[C@H]2O3` (some centres unmarked) [Example 28], the IC50 in assay [1] (A2058, 48 h) was > 1 µM; in assay [2] (U-937, 48 h), > 1 µM.

`CC(C)[C@H](O)C(=O)N[C@H]1Cc2ccc3c(c2)C2(C4=C(C(=O)NCCO)N=C(O4)[C@H](C(C)C)NC1=O)c1ccccc1N[C@H]2O3` (some centres unmarked) [Example 29]: the IC50 in assay [1] (A2058, 48 h) is > 1 µM; in assay [2] (U-937, 48 h) it was > 1 µM.

Turning to `COC(=O)[C@H](CO)NC(=O)c1nc2oc1C13c4ccccc4N[C@H]1Oc1ccc(cc13)C[C@H](NC(=O)[C@@H](O)C(C)C)C(=O)N[C@H]2C(C)C` (some centres unmarked) [Example 30], the IC50 in assay [1] (A2058, 48 h) was > 1 µM; in assay [2] (U-937, 48 h), > 1 µM.

Turning to `CC(C)[C@H](O)C(=O)N[C@H]1Cc2ccc3c(c2)[C@]2(C4=C(C(N)=O)N=C(O4)[C@H](C(C)C)NC1=O)c1ccccc1NC2O3` (some centres unmarked) [Example 31], the IC50 in assay [1] (A2058, 48 h) is > 1 µM; in assay [2] (U-937, 48 h), > 1 µM.

As to `CC(C)[C@H](O)C(=O)N[C@H]1Cc2ccc3c(c2)C2(C4=C(C(=O)NCC(=O)c5c[nH]c6c(O)cccc56)N=C(O4)[C@H](C(C)C)NC1=O)c1ccccc1N[C@H]2O3` (some centres unmarked) [Example 32], the IC50 in assay [1] (A2058, 48 h) is > 1 µM; in assay [2] (U-937, 48 h) it was > 1 µM.

As for `CC(C)[C@H](O)C(=O)N[C@H]1Cc2ccc3c(c2)C2(C4=C(C(=O)NCC(=O)c5c[nH]c6c(O)cccc56)N=C(O4)[C@H](C(C)C)NC1=O)c1cccc(Br)c1N[C@H]2O3` (some centres unmarked) [Example 33], the IC50 is > 1 µM in assay [1] (A2058, 48 h) and > 1 µM in assay [2] (U-937, 48 h).

In the case of `CC(C)[C@H](O)C(=O)N[C@H]1Cc2ccc3c(c2)C2(C4=C(C(=O)NCC(=O)c5c[nH]c6ccccc56)N=C(O4)[C@H](C(C)C)NC1=O)c1ccccc1N[C@H]2O3` (some centres unmarked) [Example 34], the IC50 in assay [1] (A2058, 48 h) is > 1 µM; in assay [2] (U-937, 48 h), > 1 µM.

With `COC(=O)c1nc2oc1C13c4ccccc4N[C@H]1Oc1ccc(cc13)C[C@H](NC(=O)[C@@H]1CCCN1)C(=O)NC2C(C)C` (some centres unmarked) [Example 35], the IC50 was > 1 µM in assay [1] (A2058, 48 h) and > 1 µM in assay [2] (U-937, 48 h).

For the molecule `COC(=O)c1nc2oc1C13c4ccccc4N[C@H]1Oc1ccc(cc13)C[C@H](NC(=O)[C@@H]1C[C@@H](O)CN1)C(=O)NC2C(C)C` (some centres unmarked) [Example 36], the IC50 in assay [1] and in assay [2] (U-937) was > 1 µM in each case.

Regarding `COC(=O)c1nc2oc1C13c4cc(ccc4O[C@@H]1N(S(C)(=O)=O)c1ccccc13)C[C@H](NC(=O)[C@@H](O)C(C)C)C(=O)N[C@H]2C(C)C` (some centres unmarked) [Example 37], the IC50 in assay [1] (A2058, 48 h) was > 1 µM; in assay [2] (U-937, 48 h) it was > 1 µM.

Turning to `COC(=O)c1nc2oc1C13c4cc(ccc4O[C@@H]1Nc1c(-c4ccccc4)cccc13)C[C@H](NC(=O)[C@@H](O)C(C)C)C(=O)N[C@H]2C(C)C` (some centres unmarked) [Example 38], the IC50 was > 1 µM in assay [1] (A2058, 48 h) and > 1 µM in assay [2] (U-937, 48 h).

Take `COC(=O)c1nc2oc1C13c4cc(ccc4O[C@@H]1Nc1c(-c4cccc5[nH]ccc45)cccc13)C[C@H](NC(=O)[C@@H](O)C(C)C)C(=O)N[C@H]2C(C)C` (some centres unmarked) [Example 39]: the IC50 in assay [1] (A2058, 48 h) is > 1 µM; in assay [2] (U-937, 48 h), > 1 µM.

Consider `COC(=O)c1nc2oc1C13c4cc(ccc4O[C@@H]1Nc1c(-c4c(C)cccc4C)cccc13)C[C@H](NC(=O)[C@@H](O)C(C)C)C(=O)N[C@H]2C(C)C` (some centres unmarked) [Example 40], for which the IC50 is > 1 µM in assay [1] (A2058, 48 h) and > 1 µM in assay [2] (U-937, 48 h).
